19 compounds from patent publication US10174037B2, “Dihydropyrazolopyrimidinone compounds as PDE2 inhibitors” (Merck Sharp & Dohme Corp., priority 2015, dated 2019) can be followed below.

The target in one test is human PDE2A1 (Homo sapiens (Human), UniProt O00408). The test is described as follows: PDE selectivity IMAP FP assay, human PDE2A1. Conditions: Human PDE2. Type of test: biochemical. The procedure, abridged:
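IMAP fluorescence polarization assay; PDE2 substrate 50 nM FAM-cAMP containing 1000 nM cGMP, enzyme diluted for 20% substrate conversion, in 10 mM Tris HCl pH 7.2, 10 mM MgCl2, 1 mM DTT. Reaction 60 min at room temperature, stopped with IMAP binding solution; polarization read after 1 h. Ki reported.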

Another test deals with Rhesus PDE2A3 (Macaca mulatta, UniProt B3VTJ2). As to the kind of experiment: PDE2 fluorescence polarization (IMAP FP) assay, rhesus PDE2A3. Type of test: biochemical, rhesus macaque.
Sequence of Rhesus PDE2A3 (B3VTJ2 1-941): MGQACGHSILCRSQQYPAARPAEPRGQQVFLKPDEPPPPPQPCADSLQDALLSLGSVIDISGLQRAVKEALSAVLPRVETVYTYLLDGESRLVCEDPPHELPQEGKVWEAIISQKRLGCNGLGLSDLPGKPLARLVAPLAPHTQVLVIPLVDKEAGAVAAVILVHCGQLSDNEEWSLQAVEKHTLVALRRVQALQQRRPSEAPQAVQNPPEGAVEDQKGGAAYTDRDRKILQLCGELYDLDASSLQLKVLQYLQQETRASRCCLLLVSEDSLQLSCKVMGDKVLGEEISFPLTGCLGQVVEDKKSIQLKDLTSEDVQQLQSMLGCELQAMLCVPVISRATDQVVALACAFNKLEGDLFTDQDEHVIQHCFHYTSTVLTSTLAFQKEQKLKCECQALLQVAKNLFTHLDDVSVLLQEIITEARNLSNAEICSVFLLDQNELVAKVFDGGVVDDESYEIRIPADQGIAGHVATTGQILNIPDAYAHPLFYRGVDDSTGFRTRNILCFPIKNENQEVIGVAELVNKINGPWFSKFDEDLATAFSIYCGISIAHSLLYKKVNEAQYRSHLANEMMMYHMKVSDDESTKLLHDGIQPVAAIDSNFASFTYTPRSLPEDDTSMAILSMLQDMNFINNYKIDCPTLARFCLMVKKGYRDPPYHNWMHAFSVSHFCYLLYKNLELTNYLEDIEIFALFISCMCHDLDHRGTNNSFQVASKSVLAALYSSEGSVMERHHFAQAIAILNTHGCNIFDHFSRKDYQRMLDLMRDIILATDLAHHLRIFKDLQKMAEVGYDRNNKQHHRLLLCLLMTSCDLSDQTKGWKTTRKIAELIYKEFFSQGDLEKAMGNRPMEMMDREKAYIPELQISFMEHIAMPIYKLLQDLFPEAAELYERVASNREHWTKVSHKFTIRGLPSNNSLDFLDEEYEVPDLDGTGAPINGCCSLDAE
The mark [1] stands for this setting: Lab B, read-out: Human PDE2 Ki (nM) Lab B.
The mark [2] stands for this setting: Lab B, read-out: Rhesus PDE2 Ki (nM) Lab B.
[3] abbreviates: Lab A, read-out: Human PDE2 Ki (nM) Lab A.
Setting [4] is: Lab A, read-out: Rhesus PDE2 Ki (nM) Lab A.

Each structure is given as a SMILES string. Like-named read-outs stand apart in the source and are kept apart here.

The term Ki denotes the equilibrium dissociation constant of an inhibitor or competing ligand from its target.

Sequence of human PDE2A1 (O00408 other isoform, or with tags, fused parts or gaps): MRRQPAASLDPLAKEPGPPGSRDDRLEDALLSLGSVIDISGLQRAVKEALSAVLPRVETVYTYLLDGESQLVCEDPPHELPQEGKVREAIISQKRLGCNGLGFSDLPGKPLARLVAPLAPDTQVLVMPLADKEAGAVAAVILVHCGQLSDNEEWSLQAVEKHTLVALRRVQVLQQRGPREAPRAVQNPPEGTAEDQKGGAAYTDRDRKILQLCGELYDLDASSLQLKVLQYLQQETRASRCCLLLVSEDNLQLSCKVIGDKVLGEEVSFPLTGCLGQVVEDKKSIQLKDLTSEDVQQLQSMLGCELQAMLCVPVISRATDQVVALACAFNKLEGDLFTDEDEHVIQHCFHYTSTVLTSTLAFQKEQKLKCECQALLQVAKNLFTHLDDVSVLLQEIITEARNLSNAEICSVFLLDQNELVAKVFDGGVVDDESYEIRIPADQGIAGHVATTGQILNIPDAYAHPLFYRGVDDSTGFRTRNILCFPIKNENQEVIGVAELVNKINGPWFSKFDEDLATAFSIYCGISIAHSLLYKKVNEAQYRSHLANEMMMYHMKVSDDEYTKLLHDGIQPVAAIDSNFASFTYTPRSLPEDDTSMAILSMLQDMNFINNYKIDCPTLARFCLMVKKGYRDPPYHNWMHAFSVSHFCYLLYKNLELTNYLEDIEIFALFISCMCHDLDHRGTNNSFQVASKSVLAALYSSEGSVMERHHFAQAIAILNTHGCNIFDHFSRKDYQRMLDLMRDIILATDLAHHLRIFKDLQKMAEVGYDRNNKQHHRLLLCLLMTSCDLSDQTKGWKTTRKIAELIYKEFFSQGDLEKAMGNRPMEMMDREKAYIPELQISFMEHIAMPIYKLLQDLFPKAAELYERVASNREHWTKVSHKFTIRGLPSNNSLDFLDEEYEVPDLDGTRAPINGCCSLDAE

`CC(c1ccc(C(F)(F)F)cc1)n1nc(C(F)(F)C(F)(F)F)c2c(=O)[nH]c(O)nc21` (single isomer, unassigned) [Example 266, (R)- or (S)-6-Hydroxy-3-(perfluoroethyl)-1-(1-(4-(trifluoromethyl)phenyl)ethyl)-1H-pyrazolo[3,4-d]pyrimidin-4(5H)-one]: the Ki at human PDE2A1 (setting [1]) came to 13 nM; on Rhesus PDE2A3 (setting [2]) it was 14 nM.
As to `CC(c1ccc(OC(F)(F)F)cc1)n1nc(C(F)F)c2c(=O)[nH]c(O)nc21` (single isomer, unassigned) [Example 274, (S)- or (R)-3-(Difluoromethyl)-6-hydroxy-1-(1-(4-(trifluoromethoxy)phenyl)ethyl)-1H-pyrazolo[3,4-d]pyrimidin-4(5H)-one], the Ki on human PDE2A1 (setting [1]) came out at 4 nM; on Rhesus PDE2A3 (setting [2]), 3.2 nM.
Taken in the same sequence, the figures for `CC(c1ccc(C(F)(F)F)c(F)c1)n1nc(C(F)F)c2c(=O)[nH]c(O)nc21` (single isomer, unassigned) [Example 278, (S)- or (R)-3-(Difluoromethyl)-1-(1-(3-fluoro-4-(trifluoromethyl)phenyl)ethyl)-6-hydroxy-1H-pyrazolo[3,4-d]pyrimidin-4(5H)-one] were 1.6 nM and 1.2 nM.
Regarding `O=c1[nH]c(O)nc2c1c(C(F)F)nn2C(c1ccc(C(F)(F)F)cc1)C1CC1` (single isomer, unassigned) [Example 279, (R)- or (S)-1-(Cyclopropyl(4-(trifluoromethyl)phenyl)methyl)-3-(difluoromethyl)-6-hydroxy-1H-pyrazolo[3,4-d]pyrimidin-4(5H)-one], the results for the Ki on human PDE2A1 (setting [1]) and at Rhesus PDE2A3 (setting [2]) were 1.9 nM and 1.8 nM, respectively.
`CC(C)C(c1ccc(C(F)(F)F)cc1)n1nc(C(F)F)c2c(=O)[nH]c(O)nc21` (single isomer, unassigned) [Example 281, (R)- or (S)-3-(Difluoromethyl)-6-hydroxy-1-(2-methyl-1-(4-(trifluoromethyl)phenyl)propyl)-1H-pyrazolo[3,4-d]pyrimidin-4(5H)-one]: the inhibition constant Ki on human PDE2A1 (setting [1]) turned out to be 1.3 nM; on Rhesus PDE2A3 (setting [2]), 1.2 nM.
Taken in the same sequence, the figures for `CC(C)C(c1ccc(C(F)(F)F)cc1)n1nc(C(F)F)c2c(=O)[nH]c(O)nc21` (single isomer, unassigned) [Example 282, (S)- or (R)-3-(Difluoromethyl)-6-hydroxy-1-(2-methyl-1-(4-(trifluoromethyl)phenyl)propyl)-1H-pyrazolo[3,4-d]pyrimidin-4(5H)-one] were 59 nM and 51 nM.
Taken in the same sequence, the figures for `CCC(c1ccc(C(F)(F)F)cc1)n1nc(C(F)F)c2c(=O)[nH]c(O)nc21` (single isomer, unassigned) [Example 286, (S)- or (R)-3-(Difluoromethyl)-6-hydroxy-1-(1-(4-(trifluoromethyl)phenyl)propyl)-1H-pyrazolo[3,4-d]pyrimidin-4(5H)-one] were 2.2 nM and 1.5 nM.
Taken in the same sequence, the figures for `CC(c1ccc(OC(F)(F)F)c(F)c1)n1nc(C(F)F)c2c(=O)[nH]c(O)nc21` (single isomer, unassigned) [Example 287, (R)- or (S)-3-(Difluoromethyl)-1-(1-(3-fluoro-4-(trifluoromethoxy)phenyl)ethyl)-6-hydroxy-1H-pyrazolo[3,4-d]pyrimidin-4(5H)-one] were 38 nM and 44 nM.
Regarding `CC(c1ccc(OC(F)(F)F)c(F)c1)n1nc(C(F)F)c2c(=O)[nH]c(O)nc21` (single isomer, unassigned) [Example 288, (S)- or (R)-3-(Difluoromethyl)-1-(1-(3-fluoro-4-(trifluoromethoxy)phenyl)ethyl)-6-hydroxy-1H-pyrazolo[3,4-d]pyrimidin-4(5H)-one], the results for the Ki at human PDE2A1 (setting [1]) and at Rhesus PDE2A3 (setting [2]) were 2.4 nM and 1.6 nM, respectively.
For the compound `N#CCc1nn(C(c2ccc(C(F)(F)F)cc2)C2CC2)c2nc(O)[nH]c(=O)c12` (single isomer, unassigned) [Example 296], the figures for the Ki on human PDE2A1 (setting [1]) and at Rhesus PDE2A3 (setting [2]) were 7.3 nM and 8.6 nM, respectively.
For the compound `CC(c1ccc(OC(F)(F)F)c(F)c1)n1nc(CC#N)c2c(=O)[nH]c(O)nc21` (single isomer, unassigned) [Example 299, (R)- or (S)-2-(1-(1-(3-Fluoro-4-(trifluoromethoxy)phenyl)ethyl)-6-hydroxy-4-oxo-4,5-dihydro-1H-pyrazolo[3,4-d]pyrimidin-3-yl)acetonitrile], the Ki at human PDE2A1 (setting [1]) amounted to 17 nM; on Rhesus PDE2A3 (setting [2]), 21 nM.
For the compound `CC(c1ccc(OC(F)(F)F)cc1)n1nc(CO)c2c(=O)[nH]c(O)nc21` (stereo not drawn) [Example 5], the inhibition constant (Ki) on human PDE2A1 (setting [3]) was 59 nM; on Rhesus PDE2A3 (setting [4]), 77 nM; on Rhesus PDE2A3 (setting [2]), 126 nM.
As to `CC(c1ccc(C2CC2)cc1)n1nc(CO)c2c(=O)[nH]c(O)nc21` (stereo not drawn) [Example 6, 1-(1-(4-Cyclopropylphenyl)ethyl)-6-hydroxy-3-(hydroxymethyl)-1H-pyrazolo[3,4-d]pyrimidin-4(5H)-one], the Ki at human PDE2A1 (setting [3]) turned out to be 50 nM; at Rhesus PDE2A3 (setting [4]), 78 nM.
`CC(c1ccc(C(C)(C)C)cc1)n1nc(CO)c2c(=O)[nH]c(O)nc21` (stereo not drawn) [Example 7, 1-(1-(4-tert-Butylphenyl)ethyl)-6-hydroxy-3-(hydroxymethyl)-1H-pyrazolo[3,4-d]pyrimidin-4(5H)-one]: the inhibition constant Ki on human PDE2A1 (setting [3]) turned out to be 27 nM; on human PDE2A1 (setting [1]), 59 nM; at Rhesus PDE2A3 (setting [4]), 51 nM; at Rhesus PDE2A3 (setting [2]), 64 nM.
Take `O=c1[nH]c(O)nc2c1c(CO)nn2C1(c2ccc(C(F)(F)F)cc2)CCC1` [Example 26, 6-Hydroxy-3-(hydroxymethyl)-1-(1-(4-(trifluoromethyl)phenyl)cyclobutyl)-1H-pyrazolo[3,4-d]pyrimidin-4(5H)-one]: the Ki is 39 nM on human PDE2A1 (setting [1]) and 50 nM on Rhesus PDE2A3 (setting [2]).
Taken in the same sequence, the figures for `O=c1[nH]c(O)nc2c1c(CO)nn2C(CF)c1ccc(C(F)(F)F)cc1` (stereo not drawn) [Example 33, 1-(2-Fluoro-1-(4-(trifluoromethyl)phenyl)ethyl)-6-hydroxy-3-(hydroxymethyl)-1H-pyrazolo[3,4-d]pyrimidin-4(5H)-one] were 71 nM and 50 nM.
Take `CC(c1ccc(OC(F)(F)F)cc1)n1nc(CF)c2c(=O)[nH]c(O)nc21` (stereo not drawn) [Example 36, 3-(Fluoromethvl)-6-hydroxy-1-(1-(4-(trifluoromethoxy)phenyl)ethyl)-1H-pyrazolo[3,4-d]pyrimidin-4(5H)-one]: the Ki on human PDE2A1 (setting [3]) stood at 6.5 nM; at human PDE2A1 (setting [1]), 17 nM; on Rhesus PDE2A3 (setting [4]), 11 nM; at Rhesus PDE2A3 (setting [2]) it was 18 nM.
`Cc1ccc(C(C)n2nc(CF)c3c(=O)[nH]c(O)nc32)cc1` (stereo not drawn) [Example 37, 3-(Fluoromethyl)-6-hydroxy-1-(1-p-tolylethyl)-1H-pyrazolo[3,4-d]pyrimidin-4(5H)-one]: the Ki on human PDE2A1 (setting [3]) came out at 44 nM; on Rhesus PDE2A3 (setting [4]), 85 nM.
Consider `CC(c1ccc(OC(F)(F)F)c(F)c1)n1nc(CF)c2c(=O)[nH]c(O)nc21` (stereo not drawn) [Example 38, 1-(1-(3-Fluoro-4-(trifluoromethoxy)phenyl)ethyl)-3-(fluoromethyl)-6-hydroxy-1H-pyrazolo[3,4-d]pyrimidin-4(5H)-one], for which the Ki on human PDE2A1 (setting [3]) turned out to be 2.8 nM; on human PDE2A1 (setting [1]), 8.5 nM; at Rhesus PDE2A3 (setting [4]) it was 7.2 nM; on Rhesus PDE2A3 (setting [2]) it was 8.3 nM.
